Experimental data published in patent US9890166B2, “Imidazopyrrolidine derivatives and their use in the treatment of disease” (NOVARTIS AG, priority 2013, dated 2018).

Legend:
BRD4 (His-Brd4(44-477)) = BRD4 (His-Brd4(44-477)) (Homo sapiens (Human), UniProt O60885); test: TR-FRET in-vitro binding assay for BRD4; conditions: single determination or n ≧ 2 independent determinations, read-out: Biochemical IC50 BRD4
Outline: (§1)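 In this TR-FRET format, each compound was tested as an 8-point dilution series, single point per concentration, dispensed from 90% DMSO solution. Incubation lasted 35 minutes at 30° C.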

BRD2 (His-Brd2(60-472)) = BRD2 (His-Brd2(60-472)) (Homo sapiens (Human), UniProt P25440); test: TR-FRET in-vitro binding assay for BRD2; conditions: single determination or n ≧ 2 independent determinations, read-out: Biochemical IC50 BRD2
Outline: as §1

BRD3 (His-Brd3(20-477)) = BRD3 (His-Brd3(20-477)) (Homo sapiens (Human), UniProt Q15059); test: TR-FRET in-vitro binding assay for BRD3; conditions: single determination or n ≧ 2 independent determinations, read-out: Biochemical IC50 BRD3
Outline: as §1

[1] = molecular target: CREBBP bromodomain (His-CREBBP(1081-1197)) (Homo sapiens (Human), UniProt Q92793); test: AlphaScreen in-vitro binding assay for CREBBP; conditions: single determination or n ≧ 2 independent determinations, read-out: Biochemical IC50 CREBBP
Outline: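 Detection used nickel-chelate acceptor plus streptavidin donor AlphaScreen beads, 1 h room temperature. Percent inhibition fitted by non-linear regression to IC50.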

[2] = molecular target: nuclear BRD4-NUT foci in HCC2494 NUT midline carcinoma cells (Homo sapiens, UniProt O60885); test: cell-based
THP-1 cells = test: Cell growth inhibition assay (CellTiter-Glo), THP-1; conditions: for GI50: Homo sapiens, THP-1, read-out: THP-1 GI50; for THP-1 TGI: THP-1 cells, total growth inhibition, CellTiter-Glo;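 as to all read-outs here: viability read as cellular ATP luminescence after 4 days, 3-fold dilution series from 10 µM, DMSO vehicle-treated cells taken as 100%, cell-free medium wells as −100%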
K-562 cells = test: Cell growth inhibition assay (CellTiter-Glo), K-562; conditions: for GI50: Homo sapiens, K562, read-out: K-562 GI50; for K-562 TGI: K-562 cells, total growth inhibition, CellTiter-Glo;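 as to all read-outs here: cellular ATP measured by luminescence after 4 days of exposure, 3-fold dilution series from 10 µM, DMSO vehicle-treated cells define 100%, cell-free medium wells −100%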
MV-4-11 cells = test: Cell growth inhibition assay (CellTiter-Glo), MV-4-11; conditions: for GI50: Homo sapiens, MV4-11, read-out: MV-4-11 GI50; for MV-4-11 TGI: MV-4-11 cells, total growth inhibition, CellTiter-Glo;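 as to all read-outs here: cellular ATP luminescence after 4 days, 3-fold dilution series from 10 µM top dose, vehicle (0.1% DMSO) set to 100%, cell-free medium set to −100%, day 0 corrected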

BRD3 (His-Brd3(20-477)), sequence (Q15059 20-477): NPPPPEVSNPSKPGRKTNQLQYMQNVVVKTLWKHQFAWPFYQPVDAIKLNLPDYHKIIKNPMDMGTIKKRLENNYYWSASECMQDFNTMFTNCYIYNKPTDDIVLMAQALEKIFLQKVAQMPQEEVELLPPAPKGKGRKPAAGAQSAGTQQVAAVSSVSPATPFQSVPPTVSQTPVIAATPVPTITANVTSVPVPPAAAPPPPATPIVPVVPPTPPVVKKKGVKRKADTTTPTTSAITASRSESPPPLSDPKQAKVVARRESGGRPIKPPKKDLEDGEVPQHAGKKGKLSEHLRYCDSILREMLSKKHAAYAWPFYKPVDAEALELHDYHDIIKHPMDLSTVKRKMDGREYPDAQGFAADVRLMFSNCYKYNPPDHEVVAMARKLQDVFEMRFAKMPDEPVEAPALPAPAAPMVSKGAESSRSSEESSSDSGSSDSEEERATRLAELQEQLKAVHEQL
BRD2 (His-Brd2(60-472)), sequence (P25440 60-472): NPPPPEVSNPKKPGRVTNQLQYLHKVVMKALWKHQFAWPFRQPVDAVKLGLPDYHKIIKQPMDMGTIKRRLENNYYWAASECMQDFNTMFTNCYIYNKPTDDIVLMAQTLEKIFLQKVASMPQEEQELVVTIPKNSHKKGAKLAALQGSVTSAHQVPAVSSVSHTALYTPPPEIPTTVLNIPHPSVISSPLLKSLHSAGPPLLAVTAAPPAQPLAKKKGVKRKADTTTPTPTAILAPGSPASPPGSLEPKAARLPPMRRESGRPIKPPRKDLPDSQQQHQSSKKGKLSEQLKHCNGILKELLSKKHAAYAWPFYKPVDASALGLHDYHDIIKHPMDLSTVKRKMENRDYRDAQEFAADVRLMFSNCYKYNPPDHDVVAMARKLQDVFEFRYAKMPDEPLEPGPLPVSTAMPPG
CREBBP bromodomain (His-CREBBP(1081-1197)), sequence (Q92793 1081-1197): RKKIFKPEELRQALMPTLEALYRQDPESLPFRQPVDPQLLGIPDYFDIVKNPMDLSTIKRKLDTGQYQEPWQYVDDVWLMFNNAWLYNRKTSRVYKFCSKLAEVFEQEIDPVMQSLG

Row | SMILES | IC50 (BRD4 (His-Brd4(44-477))) [nM] | IC50 (BRD2 (His-Brd2(60-472))) [nM] | IC50 (BRD3 (His-Brd3(20-477))) [nM] | IC50 [1] [nM] | IC50 [2] [nM] | GI50 (THP-1 cells) [nM] | THP-1 TGI (THP-1 cells) [nM] | GI50 (K-562 cells) [nM] | K-562 TGI (K-562 cells) [nM] | GI50 (MV-4-11 cells) [nM] | MV-4-11 TGI (MV-4-11 cells) [nM]
1 | Cc1cc(N2C(=O)c3[nH]c(C4CC4)nc3[C@H]2c2ccc(Cl)cc2)cn(C)c1=O [Example 47, R-6-(4-chlorophenyl)-2-cyclopropyl-5-(1,5-dimethyl-6-oxo-1,6-dihydropyridin-3-yl)-5,6-dihydropyrrolo[3,4-d]imidazol-4(3H)-one] | 40 | 39 | 38 | 1100 | 81.3 | 74.3 | 141 | 305 | >10000 | 42.5 | 102.8
2 | COc1ccc(-c2nc3c(n2C)C(c2ccc(Cl)cc2)N(c2cc(C)c(=O)n(C)c2)C3=O)cn1 (stereo not shown) [Example 8, 6-(4-chlorophenyl)-5-(1,5-dimethyl-6-oxo-1,6-dihydropyridin-3-yl)-2-(6-methoxypyridin-3-yl)-1-methyl-5,6-dihydropyrrolo[3,4-d]imidazol-4(1H)-one] | 86 | 91 | 79 | 970 | 92 | 152 | 314 | 309 | >10000 | 51 | 98
3 | COc1cc(N2C(=O)c3nc(C4CC4)n(C(C)C)c3C2c2ccc(Cl)cc2)cn2c(C)nnc12 (stereo not shown) [Example 17, 6-(4-chlorophenyl)-2-cyclopropyl-1-isopropyl-5-(8-methoxy-3-methyl-[1,2,4]triazolo[4,3-a]pyridin-6-yl)-5,6-dihydropyrrolo[3,4-d]imidazol-4(1H)-one] | 41 | 100 | 75 | > 37000 | 323 | 322 | 704.5 | 1080 | >10000 | 166 | 316.5
4 | COc1ncccc1-c1nc2c(n1C(C)C)C(=O)N(c1cc(C)c(=O)n(C)c1)[C@@H]2c1ccc(Cl)cc1 [Example 45, (R)-6-(4-chlorophenyl)-5-(1,5-dimethyl-6-oxo-1,6-dihydropyridin-3-yl)-3-isopropyl-2-(2-methoxypyridin-3-yl)-5,6-dihydropyrrolo[3,4-d]imidazol-4(3H)-one] | 16 | 17 | 17 | 1000 | 49.7 | 32.8 | 60.5 | 126 | >10000 | 22.5 | 43.9
5 | COc1ccc(-c2nc3c([nH]2)C(c2ccc(Cl)cc2)N(c2cc(C)c(=O)n(C)c2)C3=O)cn1 (stereo not shown) [Example 4, 6-(4-chlorophenyl)-5-(1,5-dimethyl-6-oxo-1,6-dihydropyridin-3-yl)-2-(6-methoxypyridin-3-yl)-5,6-dihydropyrrolo[3,4-d]imidazol-4(1H)-one] | 64 | 68 | 68 | 1400 | 74.7 | 110 | 207 | 254 | >10000 | 69.5 | 116
6 | COc1ncc(-c2nc3c(n2C(C)C)C(c2ccc(Cl)cc2)N(c2cc(C)c4nnc(C)n4c2)C3=O)c(OC)n1 (stereo not shown) [Example 10, 6-(4-chlorophenyl)-2-(2,4-dimethoxypyrimidin-5-yl)-5-(3,8-dimethyl-[1,2,4]triazolo[4,3-a]pyridin-6-yl)-1-isopropyl-5,6-dihydropyrrolo[3,4-d]imidazol-4(1H)-one] | 45 | 60 | 59 | 6300 | 180 | 158 | 302 | 326 | >10000 | 29.7 | 78.5
7 | COc1ccc(-c2nc3c(n2C)C(c2ccc(Cl)cc2)N(c2cc(OC)c4nnc(C)n4c2)C3=O)cn1 (stereo not shown) [Example 55, 6-(4-chlorophenyl)-5-(8-methoxy-3-methyl-[1,2,4]triazolo[4,3-a]pyridin-6-yl)-2-(6-methoxypyridin-3-yl)-1-methyl-5,6-dihydropyrrolo[3,4-d]imidazol-4(1H)-one] | 56 | 110 | 92 | > 37000 | 2800 | 2000 | 4410 | 7250 | >10000 | 706 | 1060
8 | COc1ncc(-c2nc3c(n2C)C(c2ccc(Cl)cc2)N(c2cc(OC)c4nnc(C)n4c2)C3=O)c(OC)n1 (stereo not shown) [Example 54, 6-(4-chlorophenyl)-2-(2,4-dimethoxypyrimidin-5-yl)-5-(8-methoxy-3-methyl-[1,2,4]triazolo[4,3-a]pyridin-6-yl)-1-methyl-5,6-dihydropyrrolo[3,4-d]imidazol-4(1H)-one] | 59 | 120 | 98 | > 37000 | 3390 | 3710 | >10000 | > 10000 | >10000 | 2100 | 3600
9 | CCn1c(-c2ccc(OC)nc2)nc2c1C(=O)N(c1cc(C)c(=O)n(C)c1)C2c1ccc(Cl)cc1 (stereo not shown) [Example 38, 6-(4-chlorophenyl)-5-(1,5-dimethyl-6-oxo-1,6-dihydropyridin-3-yl)-3-ethyl-2-(6-methoxypyridin-3-yl)-5,6-dihydropyrrolo[3,4-d]imidazol-4(3H)-one] | 78 | 92.5 | 76 | 2000 | 24.5 | 74.9 | 118 | 271 | >10000 | 30.1 | 48.9
10 | Cc1cc(N2C(=O)c3c(nc(C)n3C(C)C)[C@H]2c2ccc(Cl)cc2)cc2c1nnn2C [Example 118, (R)-6-(4-chlorophenyl)-5-(3,7-dimethyl-3H-benzo[d][1,2,3]triazol-5-yl)-3-isopropyl-2-methyl-5,6-dihydropyrrolo[3,4-d]imidazol-4(3H)-one] | < 11 | 14 | 12 | 1080 | 3.4 | 5.12 | 12.5 | 28.4 | >10000 | 2.1 | 3.79
11 | Cc1cc(N2C(=O)c3c(nc(C)n3C(C)C)C2c2ccc(Cl)cc2)cc2c1nnn2C (racemic) [Example 3, 6-(4-chlorophenyl)-5-(3,7-dimethyl-3H-benzo[d][1,2,3]triazol-5-yl)-3-isopropyl-2-methyl-5,6-dihydropyrrolo[3,4-d]imidazol-4(3H)-one] | 15 | 27 | 12 | 2600 | 12.3 | 13.7 | 27.55 | 55.1 | >10000 | 8.19 | 14.45
